Results published in PubChem BioAssay AID330 (DTP/NCI, 2004).
“And” between values parts separate entries of the source, which are not always exact repeats. Equal values may be shown once. Inconclusive results and toxic doses are left out. Peptide text beside a SMILES is read from it. * marks the point of attachment. Cbz = O=C(OCc1ccccc1)*

Tested on: P388 leukemia ip, CD2F1 mice, survival T/C
Experiment: NCI In Vivo Anticancer Drug Screen. Data for tumor model P388 Leukemia (intraperitoneal) in CD2F1 (CDF1) mice
Conditions: endpoint: median survival time, higher = longer survival
Outline: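 Mice carrying the transplanted tumor received test compound or vehicle. Survival was recorded in each group, and the value is the treated-group measurement divided by that of the vehicle-treated control group.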

[1] = dose: 50.0 mg/kg/injection, schedule: Q01DX005 (ip), vehicle: Klucel (hydroxypropylcellulose) (HPC)
[2] = dose: 100.0 mg/kg/injection, schedule: Q01DX005 (ip), vehicle: Klucel (hydroxypropylcellulose) (HPC)
[3] = dose: 200.0 mg/kg/injection, schedule: Q01DX005 (ip), vehicle: Klucel (hydroxypropylcellulose) (HPC)
[4] = dose: 12.5 mg/kg/injection, schedule: Q01DX009 (ip), vehicle: Klucel (hydroxypropylcellulose) (HPC)
[5] = dose: 25.0 mg/kg/injection, schedule: Q01DX009 (ip), vehicle: Klucel (hydroxypropylcellulose) (HPC)
[6] = dose: 50.0 mg/kg/injection, schedule: Q01DX009 (ip), vehicle: Klucel (hydroxypropylcellulose) (HPC)
[7] = dose: 100.0 mg/kg/injection, schedule: Q01DX009 (ip), vehicle: Klucel (hydroxypropylcellulose) (HPC)
[8] = dose: 200.0 mg/kg/injection, schedule: Q01DX009 (ip), vehicle: Klucel (hydroxypropylcellulose) (HPC)
[9] = dose: 50.0 mg/kg/injection, schedule: Q01DX009 (ip), vehicle: saline with Tween-80
[10] = dose: 100.0 mg/kg/injection, schedule: Q01DX009 (ip), vehicle: saline with Tween-80
[11] = dose: 200.0 mg/kg/injection, schedule: Q01DX009 (ip), vehicle: saline with Tween-80
[12] = dose: 50.0 mg/kg/injection, schedule: Q01DX009 (ip), vehicle: saline

COC(=O)C(CC(C)C)NC(=O)C(CO)NC(=O)OCc1ccccc1 (stereo not drawn) (Cbz-Ser-Leu-OMe; configuration not given here)
T/C (dose: 50.0 mg/kg/injection, schedule: Q01DX005 (ip), vehicle: saline with Tween-80): 100 % of control
T/C (dose: 100.0 mg/kg/injection, schedule: Q01DX005 (ip), vehicle: saline with Tween-80): 99 % of control
T/C (dose: 200.0 mg/kg/injection, schedule: Q01DX005 (ip), vehicle: saline with Tween-80): 100 % of control

CC1=C2CCC3(C)C(=C2OC1=O)C(C)=C(Cl)C(Cl)C3Cl (stereo not drawn)
T/C [1]: 113 % of control
T/C [2]: 119 % of control
T/C [3]: 115 % of control

O=C1N[C@H]2[C@H](CS[C@H]2CCCCC(=O)N(CCP(c2ccccc2)c2ccccc2)CCP(c2ccccc2)c2ccccc2)N1
T/C [4]: 104 % of control and 111 % of control
T/C [5]: 101 % of control and 105 % of control
T/C [6]: 103 % of control and 104 % of control
T/C [7]: 108 % of control and 124 % of control
T/C [8]: 114 % of control and 119 % of control
T/C (dose: 400.0 mg/kg/injection, schedule: Q01DX009 (ip), vehicle: Klucel (hydroxypropylcellulose) (HPC)): 102 % of control and 114 % of control

CCOC(=O)Nc1cc2c(c(N)n1)N=C(c1ccccc1)C(C)N2 (stereo not drawn)
T/C (dose: 0.5 mg/kg/injection, schedule: Q01DX005 (ip), vehicle: saline): 123 % of control
T/C (dose: 0.75 mg/kg/injection, schedule: Q01DX005 (ip), vehicle: saline): 121 % of control
T/C (dose: 1.0 mg/kg/injection, schedule: Q01DX005 (ip), vehicle: saline): 171 % of control

c1cc2cc3c(cc2cc1CC1NCCc2cc4c(cc21)OCO4)OCO3 (stereo not drawn)
T/C [4]: 100 % of control
T/C [5]: 91 % of control
T/C [6]: 107 % of control
T/C [7]: 91 % of control

CCCC(=O)C(=O)c1ccc(O)c(C)c1O
T/C [9]: 101 % of control
T/C [10]: 99 % of control
T/C [11]: 102 % of control

CC1CCC(C(C)C)/C(=N/NC(=O)c2cccnc2)C1 (stereo not drawn)
T/C (dose: 12.5 mg/kg/injection, schedule: Q01DX005 (ip), vehicle: Klucel (hydroxypropylcellulose) (HPC)): 100 % of control
T/C (dose: 25.0 mg/kg/injection, schedule: Q01DX005 (ip), vehicle: Klucel (hydroxypropylcellulose) (HPC)): 104 % of control
T/C [1]: 100 % of control

CC1(C)OCC(C(OS(C)(=O)=O)C2OC(C)(C)OC2COS(C)(=O)=O)O1 (stereo not drawn)
T/C [6]: 91 % of control
T/C [7]: 97 % of control
T/C [8]: 99 % of control

CN(C)CCO[Si](C)(C)[CH2][Sn]([CH3])([CH3])[CH3]
T/C (dose: 60.0 mg/kg/injection, schedule: Q01DX005 (ip), vehicle: saline): 108 % of control
T/C (dose: 120.0 mg/kg/injection, schedule: Q01DX005 (ip), vehicle: saline): 105 % of control

CC(CCl)N(CCCl)Cc1cccc(Nc2ncnc3nc[nH]c23)c1 (stereo not drawn)
T/C (dose: 0.13 mg/kg/injection, schedule: Q01DX009 (ip), vehicle: saline): 118 % of control
T/C (dose: 0.15 mg/kg/injection, schedule: Q04DX003 (ip), vehicle: saline): 104 % of control
T/C (dose: 0.22 mg/kg/injection, schedule: Q04DX003 (ip), vehicle: saline): 109 % of control
T/C (dose: 0.33 mg/kg/injection, schedule: Q04DX003 (ip), vehicle: saline): 118 % of control
T/C (dose: 1.3 mg/kg/injection, schedule: Q01DX009 (ip), vehicle: saline sonified): 154 % of control
T/C (dose: 2.0 mg/kg/injection, schedule: Q01DX009 (ip), vehicle: saline sonified): 181 % of control
T/C (dose: 3.0 mg/kg/injection, schedule: Q01DX009 (ip), vehicle: saline sonified): 172 % of control

COC1/C=C/OC2(C)Oc3c(C)c(O)c4c(O)c(c(/C=N/N5C(C)CN(Cc6ccccc6O)CC5C)c(O)c4c3C2=O)NC(=O)/C(C)=C\C=C\C(C)C(O)C(C)C(O)C(C)C(OC(C)=O)C1C (stereo not drawn)
T/C [9]: 92 % of control
T/C [10]: 96 % of control
T/C [11]: 91 % of control

NC(CS)C(=O)[O][Sn]([O]C(=O)C(N)CS)([O]C(=O)C(N)CS)[O]C(=O)C(N)CS (stereo not drawn)
T/C [1]: 99 % of control
T/C [2]: 108 % of control
T/C [3]: 89 % of control

C=Cc1c2[n-]c(c1C)/C=c1\[n-]/c(c(C)c1C=C)=C\c1[n-]c(c(CCC(=O)O)c1C)/C=c1\[n-]/c(c(C)c1CCC(=O)O)=C\2.[Pt+4]
T/C (dose: 50.0 mg/kg/injection, schedule: Q04DX002 (ip), vehicle: saline): 89 % of control
T/C (dose: 100.0 mg/kg/injection, schedule: Q04DX002 (ip), vehicle: saline): 100 % of control
T/C (dose: 200.0 mg/kg/injection, schedule: Q04DX002 (ip), vehicle: saline): 97 % of control

CC1OC(OC2CC(O)(C(=O)CO)Cc3c(O)c4c(c(O)c32)C(=O)c2ccccc2C4=O)CC(N)C1O (stereo not drawn)
T/C (dose: 0.05 mg/kg/injection, schedule: Q01DX009 (ip), vehicle: water): 159 % of control
T/C (dose: 0.1 mg/kg/injection, schedule: Q01DX009 (ip), vehicle: water): 185 % of control and 216 % of control
T/C (dose: 0.2 mg/kg/injection, schedule: Q01DX009 (ip), vehicle: water): 221 % of control and 261 % of control
T/C (dose: 0.21 mg/kg/injection, schedule: Q04DX003 (ip), vehicle: water): 172 % of control
T/C (dose: 0.25 mg/kg/injection, schedule: Q04DX003 (ip), vehicle: water): 101 % of control and 122 % of control
T/C (dose: 0.36 mg/kg/injection, schedule: Q04DX003 (ip), vehicle: water): 209 % of control
T/C (dose: 0.39 mg/kg/injection, schedule: Q01DX009 (ip), vehicle: water): 115 % of control
T/C (dose: 0.4 mg/kg/injection, schedule: Q01DX009 (ip), vehicle: water): 115 % of control
T/C (dose: 0.5 mg/kg/injection, schedule: Q04DX003 (ip), vehicle: water): 157 % of control
T/C (dose: 0.6 mg/kg/injection, schedule: Q04DX003 (ip), vehicle: water): 239 % of control
T/C (dose: 0.78 mg/kg/injection, schedule: Q01DX009 (ip), vehicle: water): 86 % of control
T/C (dose: 1.0 mg/kg/injection, schedule: Q04DX003 (ip), vehicle: water): 167 % of control and 183 % of control
T/C (dose: 1.3 mg/kg/injection, schedule: Q01DX001 (ip), vehicle: water): 216 % of control
T/C (dose: 2.4 mg/kg/injection, schedule: Q01DX001 (ip), vehicle: water): 104 % of control
T/C (dose: 3.2 mg/kg/injection, schedule: Q01DX001 (ip), vehicle: water): 97 % of control
T/C (dose: 4.0 mg/kg/injection, schedule: Q04DX003 (ip), vehicle: water): 104 % of control

COc1ccc(-c2cc3cc(OC)c(OC)cc3cn2)cc1OC
T/C (dose: 6.25 mg/kg/injection, schedule: Q01DX009 (ip), vehicle: suspension in saline): 99 % of control
T/C (dose: 12.5 mg/kg/injection, schedule: Q01DX009 (ip), vehicle: suspension in saline): 98 % of control
T/C (dose: 25.0 mg/kg/injection, schedule: Q01DX009 (ip), vehicle: saline): 98 % of control
T/C (dose: 25.0 mg/kg/injection, schedule: Q01DX009 (ip), vehicle: suspension in saline): 97 % of control
T/C [12]: 90 % of control

C[N+](C)(C)CCCCCCN
T/C [12]: 102 % of control
T/C (dose: 100.0 mg/kg/injection, schedule: Q01DX009 (ip), vehicle: saline): 97 % of control

CC1(C)OCC(C(O)c2nc3ccccc3nc2C(=O)Nc2ccccc2N)O1 (stereo not drawn)
T/C (dose: 100.0 mg/kg/injection, schedule: Q01DX001 (ip), vehicle: saline with Tween-80): 97 % of control
T/C (dose: 200.0 mg/kg/injection, schedule: Q01DX001 (ip), vehicle: saline with Tween-80): 92 % of control
T/C (dose: 400.0 mg/kg/injection, schedule: Q01DX001 (ip), vehicle: saline with Tween-80): 86 % of control

Cc1ccc(C)c2c1C(O)(C#Cc1ccccc1)c1ccccc1C2(O)C#Cc1ccccc1 (stereo not drawn)
T/C [9]: 86 % of control
T/C [10]: 86 % of control

O=[N+]([O-])O.[Ga]
T/C (dose: 6.25 mg/kg/injection, schedule: Q01DX005 (ip), vehicle: saline): 100 % of control
T/C (dose: 6.25 mg/kg/injection, schedule: Q01DX010 (ip), vehicle: saline): 100 % of control
T/C (dose: 12.5 mg/kg/injection, schedule: Q01DX005 (iv), vehicle: saline): 99 % of control
T/C (dose: 12.5 mg/kg/injection, schedule: Q01DX010 (ip), vehicle: saline): 100 % of control
T/C (dose: 25.0 mg/kg/injection, schedule: Q01DX005 (ip), vehicle: saline): 100 % of control and 123 % of control
T/C (dose: 25.0 mg/kg/injection, schedule: Q01DX005 (iv), vehicle: saline): 96 % of control
T/C (dose: 25.0 mg/kg/injection, schedule: Q01DX010 (ip), vehicle: saline): 118 % of control
T/C (dose: 50.0 mg/kg/injection, schedule: Q01DX005 (iv), vehicle: saline): 98 % of control and 91 % of control
T/C (dose: 50.0 mg/kg/injection, schedule: Q01DX010 (ip), vehicle: saline): 100 % of control
